Biological target: almond β-glucosidase
Experiment: glycosidase inhibition assay with p-nitrophenyl substrate, commercial (Sigma) enzyme
Type: biochemical, Prunus dulcis

**Q.** How did the IC50 turn out when `NC1=NC[C@@H](CCNC(=O)c2cc3c(cn2)[nH]c2ccccc23)N1` [compound 1, (+)-(R)-Tiruchanduramine] was run?
**A.** 1000 µM
